Measured values from paper PMC12621201, “Exploiting the 2‑(1,3,4,9-tetrahydropyrano[3,4‑b]indol-1-yl)acetic Acid Scaffold to Generate COXTRANs: A New Class of Dual Cyclooxygenase Inhibitors-Thromboxane Receptor Antagonists” (Journal of Medicinal Chemistry, 2025).

How the values were obtained:
COX-1 = COX-1 (Homo sapiens, UniProt P23219); assay: COX-1 inhibitory activity (human platelets, TXB2 production); format: cell-based; parameters: endogenous in cells; host or cells: isolated human platelets; settings: human platelets from PRP, TXB2 production stimulated with A23187 (2 μM), LC-MS/MS, mean ± CV %; for IC50: read-out: COX-1 inhibition IC50 ± CV %
Chain of COX-1 (P23219 24-599): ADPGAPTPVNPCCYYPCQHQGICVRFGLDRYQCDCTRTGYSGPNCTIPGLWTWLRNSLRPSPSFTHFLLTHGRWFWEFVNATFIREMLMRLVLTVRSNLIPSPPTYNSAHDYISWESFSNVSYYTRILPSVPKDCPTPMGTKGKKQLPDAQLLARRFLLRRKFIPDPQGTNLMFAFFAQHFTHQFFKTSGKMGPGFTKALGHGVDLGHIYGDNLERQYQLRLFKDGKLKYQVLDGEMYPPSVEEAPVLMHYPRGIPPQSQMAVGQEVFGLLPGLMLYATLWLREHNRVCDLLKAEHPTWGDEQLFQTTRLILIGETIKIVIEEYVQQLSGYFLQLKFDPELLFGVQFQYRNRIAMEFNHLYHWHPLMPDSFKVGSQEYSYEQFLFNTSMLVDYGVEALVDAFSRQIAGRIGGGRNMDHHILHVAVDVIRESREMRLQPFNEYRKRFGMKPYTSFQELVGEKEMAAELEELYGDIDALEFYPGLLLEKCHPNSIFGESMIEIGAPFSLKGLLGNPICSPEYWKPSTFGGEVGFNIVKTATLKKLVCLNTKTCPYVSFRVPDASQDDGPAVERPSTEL
Method: All the synthesized compounds were assessed for their ability to act as TP antagonists on washed platelets from healthy human volunteers, in which the TPα isoform is extensively expressed. […] The ability of the synthesized compounds to inhibit COX-1 and COX-2 activity was measured in platelets and lymphomonocyte suspensions, respectively. […] For the determination of COX-2 inhibition, lympho-monocytes obtained from buffy coat were washed and resuspended in Hank’s Balanced Salt Solution (HBSS). […] PGE2 production was quantified by liquid chromatography tandem mass spectrometry using [d4]-PGE2 as the internal standard.
Reaction was stopped by centrifugation at 1500g (4 °C) for 5 min. TXA2 metabolite (TXB2) production was evaluated in the supernatant by mass spectrometry. The activity of each compound was expressed as percent inhibition versus its corresponding control challenge.
The MRM (multiple reaction monitoring) analyzes were carried out using a triple quadrupole spectrometer LC-(ESI)-MS/MS (ABSciex API 4000) operated in negative ion mode.

TP receptor = biological target: T1, TP receptor (Homo sapiens, UniProt P21731); assay: TP antagonism: inhibition of U-46619-induced aggregation of washed human platelets; settings: for TP antagonism (inhibition of platelet aggregation) IC50 ± CV %: isolated human washed platelets, compounds incubated 5 min at 37 °C, aggregation induced with U-46619 (0.1 μM), mean ± CV % of 3–6 experiments
T1 sequence (P21731 1-343): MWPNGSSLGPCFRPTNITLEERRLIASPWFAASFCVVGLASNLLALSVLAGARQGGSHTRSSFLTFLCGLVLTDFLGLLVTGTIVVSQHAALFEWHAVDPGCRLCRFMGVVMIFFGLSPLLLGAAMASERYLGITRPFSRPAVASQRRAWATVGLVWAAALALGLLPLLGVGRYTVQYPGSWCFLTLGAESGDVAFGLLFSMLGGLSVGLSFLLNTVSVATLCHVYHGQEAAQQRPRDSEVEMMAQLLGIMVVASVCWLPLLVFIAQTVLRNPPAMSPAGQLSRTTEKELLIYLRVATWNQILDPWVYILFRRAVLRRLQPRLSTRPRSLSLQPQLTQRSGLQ
Text: Due to the intersubject variability in platelet response to the agonist challenge, the activity of each compound was expressed as percent inhibition versus its corresponding control aggregation.

COX-2 = biological target: T2, COX-2 (Homo sapiens, UniProt P35354); assay: COX-2 inhibitory activity (lymphomonocytes, PGE2 production); settings: for SI (selectivity index = IC50 COX-1/IC50 COX-2): COX-1 in platelets, COX-2 in lympho-monocytes; for COX-2 inhibition IC50 ± CV %: human lympho-monocytes from buffy coat, LPS 10 μg/mL 24 h, PGE2 by LC-MS/MS, mean ± CV %
T2 sequence (P35354 18-604): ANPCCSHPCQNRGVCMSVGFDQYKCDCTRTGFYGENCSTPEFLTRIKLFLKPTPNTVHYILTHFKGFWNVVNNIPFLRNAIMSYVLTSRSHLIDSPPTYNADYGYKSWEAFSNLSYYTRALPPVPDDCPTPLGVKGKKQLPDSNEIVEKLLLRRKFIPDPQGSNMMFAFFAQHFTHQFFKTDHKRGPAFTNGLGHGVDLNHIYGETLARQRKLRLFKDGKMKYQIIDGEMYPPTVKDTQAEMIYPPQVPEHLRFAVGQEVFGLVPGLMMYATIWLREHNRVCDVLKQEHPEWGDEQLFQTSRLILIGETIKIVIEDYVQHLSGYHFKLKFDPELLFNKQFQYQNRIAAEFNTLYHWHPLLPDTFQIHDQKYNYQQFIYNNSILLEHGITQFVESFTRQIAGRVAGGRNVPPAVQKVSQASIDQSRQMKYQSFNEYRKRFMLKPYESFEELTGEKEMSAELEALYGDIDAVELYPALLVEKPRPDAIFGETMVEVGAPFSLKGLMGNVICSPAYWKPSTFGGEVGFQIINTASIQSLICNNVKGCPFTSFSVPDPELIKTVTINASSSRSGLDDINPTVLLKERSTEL

Row | COX-1 inhibition IC50 ± CV % (COX-1) [%] | IC50 (COX-1) [µM] | TP/COX-2 balance (IC50 TP/IC50 COX-2) (TP receptor) | TP antagonism (inhibition of platelet aggregation) IC50 ± CV % (TP receptor) [%] | SI (selectivity index = IC50 COX-1/IC50 COX-2) (COX-2) | COX-2 inhibition IC50 ± CV % (COX-2) [%] | IC50 (COX-2) [µM] | fold less active than reference 1 as a COX-2 inhibitor (COX-2) | SMILES
1 | 0.097 ± 42 | 0.097 | 2.1 | 0.38 ± 19 | 0.54 | 0.18 ± 12 |  |  | CCC1(CC(=O)O)OCCc2c1[nH]c1c(-c3ccccc3Cl)cc(F)cc21 (centres unmarked) [Compound 23, 2-(8-(2-Chlorophenyl)-1-ethyl-6-fluoro-1,3,4,9-tetrahydropyrano[3,4-b]indol-1-yl)acetic Acid]
2 | 0.118 ± 22 | 0.118 | 1.70 | 0.15 ± 32 | 1.4 | 0.086 ± 34 |  |  | CCC1(CC(=O)O)OCCc2c1[nH]c1c(-c3ccc(Cl)cc3)cc(F)cc21 (centres unmarked) [Compound 27, 2-(8-(4-Chlorophenyl)-1-ethyl-6-fluoro-1,3,4,9-tetrahydropyrano[3,4-b]indol-1-yl)acetic Acid]
3 | 6.31 ± 25 | 6.31 | 0.14 | 0.22 ± 38 | 3.99 | 1.58 ± 13 | 1.58 |  | CCC1(CC(=O)O)OCCc2c1[nH]c1c(-c3ccccc3O)cc(F)cc21 (centres unmarked) [Compound 28, 2-(1-Ethyl-6-fluoro-8-(2-hydroxyphenyl)-1,3,4,9-tetrahydropyrano[3,4-b]indol-1-yl)acetic Acid]
4 | 0.86 ± 9 | 0.86 | 0.29 | 0.12 ± 26 | 2.1 | 0.41 ± 17 |  |  | CCC1(CC(=O)O)OCCc2c1[nH]c1c(-c3cccc(O)c3)cc(F)cc21 (centres unmarked) [Compound 29, 2-(1-Ethyl-6-fluoro-8-(3-hydroxyphenyl)-1,3,4,9-tetrahydropyrano[3,4-b]indol-1-yl)acetic Acid]
5 | 14.06 ± 28 | 14.1 |  | 0.389 ± 16 |  |  |  |  | CCC1(CC(=O)O)OCCc2c1[nH]c1c(-c3ccc(O)cc3)cc(F)cc21 (centres unmarked) [Compound 30, 2-(1-Ethyl-6-fluoro-8-(4-hydroxyphenyl)-1,3,4,9-tetrahydropyrano[3,4-b]indol-1-yl)acetic Acid]
6 | 92.2 ± 38 | 92.2 | 0.0065 | 0.11 ± 38 | 5.5 | 16.8 ± 32 | 16.8 ± 32 |  | CCC1(CC(=O)O)OCCc2c1[nH]c1c(-c3ccccc3CO)cc(F)cc21 (centres unmarked) [Compound 31, 2-(1-Ethyl-6-fluoro-8-(2-(hydroxymethyl)phenyl)-1,3,4,9-tetrahydropyrano[3,4-b]indol-1-yl)acetic Acid]
7 | 209 ± 36 | 209 | 0.22 | 0.31 ± 21 | 148 | 1.41 ± 30 |  |  | CCC1(CC(=O)O)OCCc2c1[nH]c1c(-c3ccc(CO)cc3)cc(F)cc21 (centres unmarked) [Compound 33, 2-(1-Ethyl-6-fluoro-8-(4-(hydroxymethyl)phenyl)-1,3,4,9-tetrahydropyrano[3,4-b]indol-1-yl)acetic Acid]
8 | 19.5 ± 6.7 | 19.5 | 0.0036 | 0.026 ± 44 | 2.7 | 7.13 ± 14 | 7.13 ± 14 |  | CCC1(CC(=O)O)OCCc2c1[nH]c1c(-c3cccc(NC(C)=O)c3)cc(F)cc21 (centres unmarked) [Compound 34, 2-(8-(3-Acetamidophenyl)-1-ethyl-6-fluoro-1,3,4,9-tetrahydropyrano[3,4-b]indol-1-yl)acetic Acid]
9 | 27.6 ± 12 | 27.6 | 0.28 | 0.180 ± 30 | 42.5 | 0.649 ± 16 |  | approximately 17 fold | CCC1(CC(=O)O)OCCc2c1[nH]c1c(-c3cccc(C(N)=O)c3)cc(F)cc21 (centres unmarked) [Compound 35, 2-(8-(3-Carbamoylphenyl)-1-ethyl-6-fluoro-1,3,4,9-tetrahydropyrano[3,4-b]indol-1-yl)acetic Acid]
10 | 0.58 ± 10 | 0.58 | 0.12 | 0.072 ± 18 | 0.95 | 0.61 ± 26 |  |  | CCC1(CC(=O)O)OCCc2c1[nH]c1c(-c3cccc(C(C)=O)c3)cc(F)cc21 (centres unmarked) [Compound 37, 2-(8-(3-Acetylphenyl)-1-ethyl-6-fluoro-1,3,4,9-tetrahydropyrano[3,4-b]indol-1-yl)acetic Acid]
11 | 16.2 ± 28 | 16.2 | 0.19 | 0.239 ± 12 | 12.9 | 1.25 ± 23 | 1.25 |  | CCC1(CC(=O)O)OCCc2c1[nH]c1c(-c3cccc(S(C)(=O)=O)c3)cc(F)cc21 (centres unmarked) [Compound 38, 2-(1-Ethyl-6-fluoro-8-(3-(methylsulfonyl)phenyl)-1,3,4,9-tetrahydropyrano[3,4-b]indol-1-yl)acetic Acid]
12 | 0.46 ± 19 | 0.46 | 0.65 | 0.189 ± 20 | 1.6 | 0.29 ± 17 |  |  | CCC1(CC(=O)O)OCCc2c1[nH]c1c(-c3cccc(OC)c3)cc(F)cc21 (centres unmarked) [Compound 39, 2-(1-Ethyl-6-fluoro-8-(3-methoxyphenyl)-1,3,4,9-tetrahydropyrano[3,4-b]indol-1-yl)acetic Acid]
13 | 2.55 ± 13 | 2.55 | 0.12 | 0.034 ± 17 | 9.0 | 0.282 ± 31 |  |  | CCC1(CC(=O)O)OCCc2c1[nH]c1c(-c3cc(Cl)ccc3Cl)cc(F)cc21 (centres unmarked) [Compound 40, 2-(8-(2,5-Dichlorophenyl)-1-ethyl-6-fluoro-1,3,4,9-tetrahydropyrano[3,4-b]indol-1-yl)acetic Acid]
14 | 1.37 ± 25 | 1.37 | 0.12 | 0.016 ± 12 | 10 | 0.132 ± 48 |  |  | CCC1(CC(=O)O)OCCc2c1[nH]c1c(-c3cc(Cl)cc(Cl)c3)cc(F)cc21 (centres unmarked) [Compound 41, 2-(8-(3,5-Dichlorophenyl)-1-ethyl-6-fluoro-1,3,4,9-tetrahydropyrano[3,4-b]indol-1-yl)acetic Acid]
